Assay results taken from the NIST ThermoML archive (doi:10.1021/acs.jced.5b01023).
± gives the expanded uncertainty stated by the source.

Assay: refractive index (Na D-line) (dimensionless); xn = mol fraction of the nth substance listed
Conditions: 101 kPa, Liquid, Standard Abbe refractometry

CC(=O)[O-].CCn1cc[n+](C)c1 [1-ethyl-3-methylimidazolium acetate] + CCCO
refractive index
Conditions | x1 = 0.1017 | x1 = 0.2004 | x1 = 0.3001 | x1 = 0.3998 | x1 = 0.4997 | x1 = 0.5996 | x1 = 0.6998 | x1 = 0.8002 | x1 = 0.8991 | x1 = 1
288.15 K | 1.41146 ± 0.00035 | 1.42938 ± 0.00036 | 1.44451 ± 0.00037 | 1.45711 ± 0.00039 | 1.46775 ± 0.00041 | 1.47687 ± 0.00043 | 1.485 ± 0.00045 | 1.49189 ± 0.00047 | 1.49712 ± 0.0005 | 1.50285 ± 0.00053
298.15 K | 1.40825 ± 0.00035 | 1.42622 ± 0.00036 | 1.44134 ± 0.00037 | 1.45401 ± 0.00039 | 1.46473 ± 0.00041 | 1.47411 ± 0.00043 | 1.48219 ± 0.00045 | 1.48919 ± 0.00047 | 1.49506 ± 0.0005 | 1.50069 ± 0.00053
308.15 K | 1.40453 ± 0.00035 | 1.42291 ± 0.00036 | 1.43827 ± 0.00037 | 1.45119 ± 0.00039 | 1.46189 ± 0.00041 | 1.47127 ± 0.00043 | 1.47942 ± 0.00045 | 1.48632 ± 0.00047 | 1.49221 ± 0.0005 | 1.49803 ± 0.00053
318.15 K | 1.40109 ± 0.00035 | 1.41973 ± 0.00036 | 1.43523 ± 0.00037 | 1.44803 ± 0.00039 | 1.45888 ± 0.00041 | 1.4683 ± 0.00043 | 1.47661 ± 0.00045 | 1.48365 ± 0.00047 | 1.48899 ± 0.0005 | 1.49527 ± 0.00053
328.15 K | 1.39753 ± 0.00035 | 1.41631 ± 0.00036 | 1.43208 ± 0.00037 | 1.44542 ± 0.00039 | 1.45593 ± 0.00041 | 1.4657 ± 0.00043 | 1.47372 ± 0.00045 | 1.48089 ± 0.00047 | 1.48673 ± 0.0005 | 1.49266 ± 0.00053
338.15 K | 1.39391 ± 0.00035 | 1.41301 ± 0.00036 | 1.4291 ± 0.00037 | 1.44211 ± 0.00039 | 1.45308 ± 0.00041 | 1.46267 ± 0.00043 | 1.4711 ± 0.00045 | 1.47818 ± 0.00047 | 1.48324 ± 0.0005 | 1.48995 ± 0.00053
348.15 K | 1.39115 ± 0.00036 | 1.41033 ± 0.00036 | 1.42601 ± 0.00037 | 1.43912 ± 0.00039 | 1.45026 ± 0.00041 | 1.45993 ± 0.00043 | 1.46823 ± 0.00045 | 1.47546 ± 0.00047 | 1.4803 ± 0.0005 | 1.48721 ± 0.00053

CC(=O)[O-].CCn1cc[n+](C)c1 [1-ethyl-3-methylimidazolium acetate] + CC(C)O
refractive index
Conditions | x1 = 0.1 | x1 = 0.2 | x1 = 0.3 | x1 = 0.4 | x1 = 0.5001 | x1 = 0.5998 | x1 = 0.7 | x1 = 0.7994 | x1 = 0.9 | x1 = 1
288.15 K | 1.40475 ± 0.004 | – | 1.43991 ± 0.004 | 1.45344 ± 0.004 | 1.4651 ± 0.004 | 1.47535 ± 0.004 | 1.48406 ± 0.004 | 1.4912 ± 0.004 | 1.49776 ± 0.004 | 1.50285 ± 0.004
298.15 K | 1.40107 ± 0.004 | – | 1.43669 ± 0.004 | 1.45075 ± 0.004 | 1.46242 ± 0.004 | 1.47243 ± 0.004 | 1.48131 ± 0.004 | 1.48861 ± 0.004 | 1.49526 ± 0.004 | 1.50069 ± 0.004
308.15 K | 1.39762 ± 0.004 | 1.42276 ± 0.004 | 1.4336 ± 0.004 | 1.4475 ± 0.004 | – | 1.46954 ± 0.004 | 1.4784 ± 0.004 | 1.48593 ± 0.004 | 1.49257 ± 0.004 | 1.49803 ± 0.004
318.15 K | 1.39423 ± 0.004 | 1.41947 ± 0.004 | 1.43066 ± 0.004 | 1.44471 ± 0.004 | 1.45641 ± 0.004 | 1.46689 ± 0.004 | 1.47561 ± 0.004 | 1.48324 ± 0.004 | 1.48986 ± 0.004 | 1.49527 ± 0.004
328.15 K | 1.39112 ± 0.004 | 1.41637 ± 0.004 | 1.42763 ± 0.004 | 1.44229 ± 0.004 | 1.45352 ± 0.004 | 1.46489 ± 0.004 | 1.47293 ± 0.004 | 1.48046 ± 0.004 | 1.48714 ± 0.004 | 1.49266 ± 0.004
338.15 K | 1.38677 ± 0.004 | 1.41309 ± 0.004 | 1.42464 ± 0.004 | 1.43908 ± 0.004 | 1.45107 ± 0.004 | 1.45943 ± 0.004 | 1.47054 ± 0.004 | 1.47775 ± 0.004 | 1.48466 ± 0.004 | 1.48995 ± 0.004
